Legend:
[1] = Description: Pinoxaden (25 g) was added to the respective solvent (75 g) as set out in Table 1 and stirred at 50° C. for 1 hour. After cooling to room temperature (RT) the sample was visually checked for solid residues.
Where there were no residues and the resulting solution was a clear liquid the sample was considered as a “pass”.

[2] = powdered form, repeated inhalation of dust; cited from earlier work

Compound	Solubility [1]	respiratory sensitisation [2]
cyclohexanedicarboxylic acid, dinonyl ester	Fail	–
rapeseed oil	Fail	–
CCc1cc(C)cc(CC)c1-c1c(OC(=O)C(C)(C)C)n2n(c1=O)CCOCC2 [pinoxaden]	–	respiratory sensitizer

Source: US20240423206A1, “HERBICIDE TRANSPORT SYSTEM” (priority 2021, published 2024)
